PMC11233931, “Remodeling tumor‐associated macrophage for anti‐cancer effects by rational design of irreversible inhibition of mitogen‐activated protein kinase‐activated protein kinase 2” (MedComm, 2024)

Columns and labels:
Experiment in all cases: Eurofins kinase selectivity profile against 380 other human recombinant kinases (Table S2)
Format in all cases: biochemical
[1] = target: T1, 380 human recombinant protein kinases (Homo sapiens, UniProt O75582); settings: MSK1(h), read-out: Inhibition rate
T1 construct: purchased Eurofins (Celle Lévescault)
How it was run: (§1)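 Values come from a contract kinase-profiling service that tested the compound at multiple concentrations across 380 recombinant human kinases, as an off-target check against the MK2 activity.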

[2] = target: T2, 380 human recombinant protein kinases (Homo sapiens, UniProt O94804); settings: LOK(h), read-out: Inhibition rate
T2 construct: purchased Eurofins (Celle Lévescault)
How it was run: as §1

[3] = target: T3, 380 human recombinant protein kinases (Homo sapiens, UniProt P29323); settings: EphB2(h), read-out: Inhibition rate
T3 construct: purchased Eurofins (Celle Lévescault)
T3 sequence (P29323 19-1055): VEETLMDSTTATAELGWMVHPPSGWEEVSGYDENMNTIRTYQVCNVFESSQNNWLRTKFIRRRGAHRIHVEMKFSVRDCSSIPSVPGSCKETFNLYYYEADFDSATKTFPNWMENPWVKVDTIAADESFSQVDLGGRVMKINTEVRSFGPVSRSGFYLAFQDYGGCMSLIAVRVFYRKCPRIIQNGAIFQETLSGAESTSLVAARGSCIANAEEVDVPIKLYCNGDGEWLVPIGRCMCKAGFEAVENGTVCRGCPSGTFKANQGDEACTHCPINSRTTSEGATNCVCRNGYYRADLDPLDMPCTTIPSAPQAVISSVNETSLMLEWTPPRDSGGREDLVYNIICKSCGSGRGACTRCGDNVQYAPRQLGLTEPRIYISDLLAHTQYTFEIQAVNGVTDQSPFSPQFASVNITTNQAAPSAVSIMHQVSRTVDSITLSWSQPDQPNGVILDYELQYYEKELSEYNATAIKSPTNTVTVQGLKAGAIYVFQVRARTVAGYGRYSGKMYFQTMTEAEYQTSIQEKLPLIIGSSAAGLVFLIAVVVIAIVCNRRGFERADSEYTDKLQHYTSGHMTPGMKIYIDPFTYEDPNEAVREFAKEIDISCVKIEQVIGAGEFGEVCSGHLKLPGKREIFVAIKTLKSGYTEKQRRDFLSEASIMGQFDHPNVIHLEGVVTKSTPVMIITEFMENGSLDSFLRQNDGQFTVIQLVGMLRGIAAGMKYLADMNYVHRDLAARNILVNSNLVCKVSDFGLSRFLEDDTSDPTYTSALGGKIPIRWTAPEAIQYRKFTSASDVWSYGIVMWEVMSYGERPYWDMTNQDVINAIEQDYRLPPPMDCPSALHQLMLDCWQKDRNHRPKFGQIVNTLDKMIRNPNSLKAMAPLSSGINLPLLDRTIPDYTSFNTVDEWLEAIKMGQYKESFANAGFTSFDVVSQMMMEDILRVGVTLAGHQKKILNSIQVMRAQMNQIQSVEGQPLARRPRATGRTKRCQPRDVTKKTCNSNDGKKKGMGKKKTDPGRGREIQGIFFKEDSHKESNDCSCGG
How it was run: as §1

[4] = target: T4, 380 human recombinant protein kinases (Homo sapiens, UniProt P35968); settings: KDR(h), read-out: Inhibition rate
T4 construct: purchased Eurofins (Celle Lévescault)
How it was run: as §1

[5] = target: T5, 380 human recombinant protein kinases (Homo sapiens, UniProt P51813); settings: Bmx(h), read-out: Inhibition rate
T5 construct: purchased Eurofins (Celle Lévescault)
T5 sequence (P51813 1-675): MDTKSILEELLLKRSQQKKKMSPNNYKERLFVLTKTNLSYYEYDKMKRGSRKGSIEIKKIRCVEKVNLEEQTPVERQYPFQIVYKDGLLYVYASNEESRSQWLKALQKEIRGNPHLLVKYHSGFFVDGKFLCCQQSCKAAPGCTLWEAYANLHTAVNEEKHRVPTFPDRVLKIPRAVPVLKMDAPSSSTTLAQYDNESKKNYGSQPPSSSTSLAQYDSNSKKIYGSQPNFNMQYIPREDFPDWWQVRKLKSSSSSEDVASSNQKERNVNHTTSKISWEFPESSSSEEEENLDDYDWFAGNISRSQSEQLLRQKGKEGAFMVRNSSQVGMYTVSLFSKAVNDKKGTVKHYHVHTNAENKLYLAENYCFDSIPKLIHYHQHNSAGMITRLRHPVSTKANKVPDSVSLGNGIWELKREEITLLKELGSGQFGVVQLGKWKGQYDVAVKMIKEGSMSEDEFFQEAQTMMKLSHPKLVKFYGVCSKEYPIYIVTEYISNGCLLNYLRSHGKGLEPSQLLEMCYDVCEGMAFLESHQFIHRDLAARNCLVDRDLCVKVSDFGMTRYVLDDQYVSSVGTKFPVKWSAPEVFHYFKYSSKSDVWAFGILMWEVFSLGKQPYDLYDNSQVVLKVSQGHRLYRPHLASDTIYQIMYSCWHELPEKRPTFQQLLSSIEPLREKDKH
How it was run: as §1

[6] = target: T6, 380 human recombinant protein kinases (Homo sapiens, UniProt Q86V86); settings: Pim-3(h), read-out: Inhibition rate
T6 construct: purchased Eurofins (Celle Lévescault)
How it was run: as §1

[7] = target: T7, 380 human recombinant protein kinases (Homo sapiens, UniProt Q8N4C8); settings: MINK(h), read-out: Inhibition rate
T7 construct: purchased Eurofins (Celle Lévescault)
How it was run: as §1

[8] = target: T8, 380 human recombinant protein kinases (Homo sapiens, UniProt Q9H3Y6); settings: SRMS(h), read-out: Inhibition rate (%)
T8 construct: purchased Eurofins (Celle Lévescault)
How it was run: as §1

T1 sequence (O75582 whole entry): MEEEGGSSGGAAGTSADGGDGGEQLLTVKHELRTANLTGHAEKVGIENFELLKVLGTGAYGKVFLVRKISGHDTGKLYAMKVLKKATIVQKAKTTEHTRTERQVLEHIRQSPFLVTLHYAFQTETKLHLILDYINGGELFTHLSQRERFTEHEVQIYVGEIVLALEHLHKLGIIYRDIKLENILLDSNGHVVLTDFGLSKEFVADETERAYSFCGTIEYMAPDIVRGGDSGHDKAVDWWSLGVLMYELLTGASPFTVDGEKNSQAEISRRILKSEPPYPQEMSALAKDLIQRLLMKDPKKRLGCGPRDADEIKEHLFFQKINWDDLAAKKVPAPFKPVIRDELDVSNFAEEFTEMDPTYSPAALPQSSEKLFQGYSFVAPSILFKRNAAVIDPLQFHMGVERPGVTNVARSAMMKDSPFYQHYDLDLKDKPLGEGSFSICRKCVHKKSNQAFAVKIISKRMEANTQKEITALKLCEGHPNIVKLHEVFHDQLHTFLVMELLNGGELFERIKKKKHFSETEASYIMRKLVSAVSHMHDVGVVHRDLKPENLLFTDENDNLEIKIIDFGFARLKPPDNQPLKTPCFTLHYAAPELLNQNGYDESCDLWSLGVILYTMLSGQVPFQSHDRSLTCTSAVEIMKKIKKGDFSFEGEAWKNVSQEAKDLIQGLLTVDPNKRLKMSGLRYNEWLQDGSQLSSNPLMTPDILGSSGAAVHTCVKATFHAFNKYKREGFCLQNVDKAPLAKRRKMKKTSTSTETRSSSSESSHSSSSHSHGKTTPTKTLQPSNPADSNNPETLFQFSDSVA
T2 sequence (O94804 whole entry): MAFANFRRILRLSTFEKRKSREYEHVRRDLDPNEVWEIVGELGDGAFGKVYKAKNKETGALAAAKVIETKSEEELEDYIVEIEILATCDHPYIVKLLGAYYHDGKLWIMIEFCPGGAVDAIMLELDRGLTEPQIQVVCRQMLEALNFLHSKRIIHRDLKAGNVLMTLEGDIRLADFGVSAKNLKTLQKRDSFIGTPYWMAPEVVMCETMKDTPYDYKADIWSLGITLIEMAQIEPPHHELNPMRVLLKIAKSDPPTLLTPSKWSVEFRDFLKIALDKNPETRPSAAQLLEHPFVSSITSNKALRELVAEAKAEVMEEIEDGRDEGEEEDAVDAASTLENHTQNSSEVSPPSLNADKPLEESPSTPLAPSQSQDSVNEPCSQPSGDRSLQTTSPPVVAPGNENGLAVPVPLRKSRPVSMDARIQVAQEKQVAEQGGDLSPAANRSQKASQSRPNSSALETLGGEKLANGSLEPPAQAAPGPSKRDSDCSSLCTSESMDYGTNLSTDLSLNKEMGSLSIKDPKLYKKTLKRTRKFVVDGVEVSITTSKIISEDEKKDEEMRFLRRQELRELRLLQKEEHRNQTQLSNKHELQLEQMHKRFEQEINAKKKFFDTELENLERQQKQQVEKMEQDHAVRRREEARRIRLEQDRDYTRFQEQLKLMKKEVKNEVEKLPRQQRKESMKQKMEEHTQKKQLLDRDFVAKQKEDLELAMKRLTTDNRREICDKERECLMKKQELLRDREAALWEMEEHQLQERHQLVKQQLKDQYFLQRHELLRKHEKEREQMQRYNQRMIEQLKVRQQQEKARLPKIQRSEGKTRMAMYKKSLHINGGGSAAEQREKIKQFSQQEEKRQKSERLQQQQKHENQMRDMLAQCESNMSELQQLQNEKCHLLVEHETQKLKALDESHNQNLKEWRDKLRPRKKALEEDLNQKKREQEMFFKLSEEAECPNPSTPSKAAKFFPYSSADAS
T8 sequence (Q9H3Y6 whole entry): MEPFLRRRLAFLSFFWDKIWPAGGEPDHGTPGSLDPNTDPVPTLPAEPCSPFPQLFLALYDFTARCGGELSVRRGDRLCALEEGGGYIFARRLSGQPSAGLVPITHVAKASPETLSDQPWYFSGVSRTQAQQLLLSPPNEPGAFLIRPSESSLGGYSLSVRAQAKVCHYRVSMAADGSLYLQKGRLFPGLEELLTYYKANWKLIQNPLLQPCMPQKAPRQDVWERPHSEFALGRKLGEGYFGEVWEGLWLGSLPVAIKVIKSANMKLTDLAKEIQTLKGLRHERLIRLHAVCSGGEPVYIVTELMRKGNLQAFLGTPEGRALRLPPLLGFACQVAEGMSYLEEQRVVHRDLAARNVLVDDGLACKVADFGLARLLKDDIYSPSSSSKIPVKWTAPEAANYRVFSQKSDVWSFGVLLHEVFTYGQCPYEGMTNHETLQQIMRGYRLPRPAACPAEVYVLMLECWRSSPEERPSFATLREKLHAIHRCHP
T7 sequence (Q8N4C8 whole entry): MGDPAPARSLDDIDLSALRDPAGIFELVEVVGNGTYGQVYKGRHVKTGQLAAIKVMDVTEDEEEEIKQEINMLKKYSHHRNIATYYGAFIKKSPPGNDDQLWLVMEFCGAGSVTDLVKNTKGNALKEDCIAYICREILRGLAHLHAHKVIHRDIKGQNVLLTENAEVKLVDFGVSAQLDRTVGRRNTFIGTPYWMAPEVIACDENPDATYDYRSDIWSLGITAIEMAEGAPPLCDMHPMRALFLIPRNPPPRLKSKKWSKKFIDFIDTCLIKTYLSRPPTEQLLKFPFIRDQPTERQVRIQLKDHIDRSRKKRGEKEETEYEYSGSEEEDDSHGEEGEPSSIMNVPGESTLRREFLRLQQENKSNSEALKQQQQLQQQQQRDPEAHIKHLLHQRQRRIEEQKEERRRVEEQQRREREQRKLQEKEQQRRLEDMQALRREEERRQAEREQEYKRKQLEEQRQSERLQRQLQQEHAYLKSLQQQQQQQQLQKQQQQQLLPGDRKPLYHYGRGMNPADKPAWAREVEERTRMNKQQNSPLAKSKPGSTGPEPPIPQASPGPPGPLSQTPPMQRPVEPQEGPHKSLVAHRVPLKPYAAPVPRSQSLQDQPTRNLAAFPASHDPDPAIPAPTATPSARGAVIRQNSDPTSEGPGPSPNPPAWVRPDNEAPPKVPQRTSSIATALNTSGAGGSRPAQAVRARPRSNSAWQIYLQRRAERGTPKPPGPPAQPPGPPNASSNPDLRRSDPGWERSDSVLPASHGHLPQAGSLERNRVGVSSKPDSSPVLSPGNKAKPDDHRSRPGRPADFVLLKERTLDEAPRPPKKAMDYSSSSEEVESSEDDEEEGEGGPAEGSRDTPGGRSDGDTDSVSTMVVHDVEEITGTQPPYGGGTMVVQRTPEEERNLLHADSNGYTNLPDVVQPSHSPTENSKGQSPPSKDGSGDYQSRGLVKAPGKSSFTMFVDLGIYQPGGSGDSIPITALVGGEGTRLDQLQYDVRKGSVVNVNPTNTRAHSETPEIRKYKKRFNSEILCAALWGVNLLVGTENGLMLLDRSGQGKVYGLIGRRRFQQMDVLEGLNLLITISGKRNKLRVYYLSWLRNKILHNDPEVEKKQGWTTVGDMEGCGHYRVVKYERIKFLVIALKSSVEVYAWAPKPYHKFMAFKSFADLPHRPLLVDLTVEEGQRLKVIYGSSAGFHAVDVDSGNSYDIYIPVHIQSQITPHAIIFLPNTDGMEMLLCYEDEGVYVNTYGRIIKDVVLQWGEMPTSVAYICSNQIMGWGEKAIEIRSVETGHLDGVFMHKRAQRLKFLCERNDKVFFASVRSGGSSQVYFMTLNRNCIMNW
T4 sequence (P35968 20-1356): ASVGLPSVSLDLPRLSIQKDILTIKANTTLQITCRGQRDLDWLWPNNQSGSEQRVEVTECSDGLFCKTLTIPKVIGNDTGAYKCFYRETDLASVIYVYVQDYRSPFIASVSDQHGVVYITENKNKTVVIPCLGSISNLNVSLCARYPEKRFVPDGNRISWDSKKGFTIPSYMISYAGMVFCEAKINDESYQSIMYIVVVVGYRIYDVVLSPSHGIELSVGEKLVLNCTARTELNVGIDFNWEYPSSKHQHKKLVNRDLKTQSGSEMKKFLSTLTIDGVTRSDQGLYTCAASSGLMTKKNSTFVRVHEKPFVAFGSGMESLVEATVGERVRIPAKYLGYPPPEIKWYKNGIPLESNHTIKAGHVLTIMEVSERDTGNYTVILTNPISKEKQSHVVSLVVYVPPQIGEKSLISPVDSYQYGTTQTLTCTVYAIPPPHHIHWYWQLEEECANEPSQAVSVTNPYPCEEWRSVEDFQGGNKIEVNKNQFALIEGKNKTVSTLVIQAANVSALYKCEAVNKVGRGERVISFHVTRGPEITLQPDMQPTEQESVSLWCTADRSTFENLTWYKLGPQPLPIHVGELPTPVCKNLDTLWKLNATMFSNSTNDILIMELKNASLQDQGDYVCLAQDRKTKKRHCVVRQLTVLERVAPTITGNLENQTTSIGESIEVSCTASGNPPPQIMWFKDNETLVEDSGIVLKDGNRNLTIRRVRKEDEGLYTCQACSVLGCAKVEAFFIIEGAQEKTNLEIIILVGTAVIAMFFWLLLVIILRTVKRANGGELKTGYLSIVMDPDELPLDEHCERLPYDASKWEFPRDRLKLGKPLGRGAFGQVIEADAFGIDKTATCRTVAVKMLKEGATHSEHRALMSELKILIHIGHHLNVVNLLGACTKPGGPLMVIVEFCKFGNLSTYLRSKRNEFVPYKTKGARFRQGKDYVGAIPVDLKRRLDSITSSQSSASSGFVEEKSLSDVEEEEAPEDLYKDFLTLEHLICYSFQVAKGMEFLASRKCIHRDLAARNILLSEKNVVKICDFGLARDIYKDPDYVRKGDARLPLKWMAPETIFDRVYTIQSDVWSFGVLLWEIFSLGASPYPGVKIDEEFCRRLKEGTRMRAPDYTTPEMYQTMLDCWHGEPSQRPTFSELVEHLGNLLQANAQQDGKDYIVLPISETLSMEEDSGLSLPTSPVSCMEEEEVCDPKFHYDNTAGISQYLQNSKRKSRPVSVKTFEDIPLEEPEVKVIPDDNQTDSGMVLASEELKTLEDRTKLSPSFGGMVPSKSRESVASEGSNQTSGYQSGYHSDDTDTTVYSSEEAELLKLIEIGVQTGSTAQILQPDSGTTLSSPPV

SMILES: C=CC(=O)Nc1cc(-c2cc(-c3cc4c([nH]3)CCNC4=O)ccn2)ccc1OC(F)(F)F [compound 11]
- inhibition at 0.01 µM ([1]; 10 nM): -11%
- inhibition at 0.1 µM ([1]; 100 nM): -12%
- inhibition at 1 µM ([1]; 1000 nM): -11%
- inhibition at 0.01 µM ([2]; 10 nM): -2%
- inhibition at 0.1 µM ([2]; 100 nM): 6%
- inhibition at 1 µM ([2]; 1000 nM): 54%
- inhibition at 0.01 µM ([3]; 10 nM): 5%
- inhibition at 0.1 µM ([3]; 100 nM): -2%
- inhibition at 1 µM ([3]; 1000 nM): -14%
- inhibition at 0.01 µM ([4]; 10 nM): 4%
- inhibition at 0.1 µM ([4]; 100 nM): 5%
- inhibition at 1 µM ([4]; 1000 nM): 31%
- inhibition at 0.01 µM ([5]; 10 nM): 1%
- inhibition at 0.1 µM ([5]; 100 nM): -4%
- inhibition at 1 µM ([5]; 1000 nM): -5%
- inhibition at 0.01 µM ([6]; 10 nM): -1%
- inhibition at 0.1 µM ([6]; 100 nM): 16%
- inhibition at 1 µM ([6]; 1000 nM): 59%
- inhibition at 0.01 µM ([7]; 10 nM): -10%
- inhibition at 0.1 µM ([7]; 100 nM): 3%
- inhibition at 1 µM ([7]; 1000 nM): 31%
- inhibition at 0.01 µM ([8]; 10 nM): 1%
- inhibition at 0.1 µM ([8]; 100 nM): 10%
- inhibition at 1 µM ([8]; 1000 nM): 7%
